Literature values, collected in patent US8598145B2, “Mitochondrially delivered anti-cancer compounds” (priority 2008, dated 2013).

How the values were obtained:
[1] = test system: Jurkat, HBT11, MCF7, MCF7-C3; settings: Table II; cited from earlier work
[2] = test system: B16-F1/ nude mice; settings: Kogure et al 2005; cited from earlier work
[3] = test system: Jurkat, U937, Meso-2; settings: cited from earlier work
[4] = test system: MCF7; settings: Arya et al; cited from earlier work
[5] = test system: MDA-MB-435, MCF7; settings: cited from earlier work
[6] = test system: NB4, HT93; settings: cited from earlier work
[7] = test system: Jurkat, HBT1, MCF7, MCF7-C3, U937, Meso-2; settings: cited from earlier work

Cc1c(C)c2c(c(C)c1OC(=O)C=CC(=O)O)CCC(C)(CCCC(C)CCCC(C)CCCC(C)C)O2 (centres unmarked) [Nr 3]
IC50 [1]: 22 µM

Cc1c(C)c2c(c(C)c1OC(=O)C(=O)O)CCC(C)(CCCC(C)CCCC(C)CCCC(C)C)O2 (centres unmarked) [Nr 10]
cytotoxicity in mice inoculated with B16-F1 melanoma cells [2]: non-selective cytotoxicity

Cc1c(C)c2c(c(C)c1OC(=O)CC(=O)O)CCC(C)(CCCC(C)CCCC(C)CCCC(C)C)O2 (centres unmarked) [Nr 11]
cytotoxicity in mice inoculated with B16-F1 melanoma cells [2]: non-selective cytotoxicity

Cc1c(C)c2c(c(C)c1NC(=O)CCC(=O)O)CCC(C)(CCCC(C)CCCC(C)CCCC(C)C)O2 (centres unmarked) [Nr 12]
IC50 [3]: 13 µM

Cc1c(C)c2c(c(C)c1NC(=O)C=CC(=O)O)CCC(C)(CCCC(C)CCCC(C)CCCC(C)C)O2 (centres unmarked) [Nr 13]
IC50 [3]: 2 µM

COC(=O)CCC(=O)Nc1c(C)c(C)c2c(c1C)CCC(C)(CCCC(C)CCCC(C)CCCC(C)C)O2 (centres unmarked) [Nr 14]
IC50 [3]: > 100 µM

Cc1c(C)c2c(c(C)c1OC(=O)C(N)CCCCN)CCC(C)(CCCC(C)CCCC(C)CCCC(C)C)O2 (centres unmarked) [Nr 16]
IC50 [4]: 12 µM

Cc1c(C)c2c(c(C)c1OCC(=O)O)CCC(C)(CCCC(C)CCCC(C)CCCC(C)C)O2 (centres unmarked) [Nr 21]
EC50 [5]: 15 to 20 µg/mL

CC1=C(/C=C/C(C)=C/C=C/C(C)=C/C(=O)Oc2c(C)c(C)c3c(c2C)CCC(C)(CCCC(C)CCCC(C)CCCC(C)C)O3)C(C)(C)CCC1 (centres unmarked) [Nr 28]
IC50 [6]: 0.1 to 1 µM

Cc1cc(OC(=O)CCC(=O)O)c(C)c2c1OC(C)(CCCC(C)CCCC(C)CCCC(C)C)CC2 (centres unmarked) [Nr 32]
IC50, printed relative to α-TOS [7]: 50% of α-TOS

Cc1cc(OC(=O)CCC(=O)O)cc2c1OC(C)(CCCC(C)CCCC(C)CCCC(C)C)CC2 (centres unmarked) [Nr 35]
IC50 [1]: 66 µM

Cc1cc(OC(=O)C=CC(=O)O)cc2c1OC(C)(CCCC(C)CCCC(C)CCCC(C)C)CC2 (centres unmarked) [Nr 36]
IC50 [1]: 49 µM

Cc1cc(NC(=O)CCC(=O)O)cc2c1OC(C)(CCCC(C)CCCC(C)CCCC(C)C)CC2 (centres unmarked) [Nr 37]
IC50 [3]: 20 µM

Cc1cc(NC(=O)C=CC(=O)O)cc2c1OC(C)(CCCC(C)CCCC(C)CCCC(C)C)CC2 (centres unmarked) [Nr 38]
IC50 [3]: 9 µM
